For one data set, the system named is primary HCO cells. The data set is described as follows: OsteoImage mineralization assay in primary HCO cells. In kind it is cell-based, human. Conditions: 14 days. Here is the method: The biological activity of the RXFP2 agonists was tested in primary HCO cells (ScienCell Research Laboratories, San Diego, CA) by measuring their ability to induce osteoblast mineralization. A fluorescent-based assay (OSTEOIMAGE™ Mineralization Assay, Lonza, Switzerland) was used that measures hydroxyapatite, which is the main mineral component of bone. For this assay, HCO cells were seeded in 0.1% gelatin-coated 96 well black-walled flat-bottom clear plates at 7,000 cells/well in 100 μL/well of growth medium (DMEM, 10% FBS, 1× Pen/Strep) and allowed to attach overnight at 37° C. and 5% CO2. The next day, growth medium was changed to 100 μL/well of mineralization medium (growth medium+10 mM β-glycerophosphate, 50 μg/ml ascorbic acid, 10 nM dexamethasone), along with the respective treatments. Cells were treated with 1 μL/well of compound (1, 3, or 5 μM) or vehicle (serum-free DMEM, 0.05% DMSO). Medium and treatments were replaced every 2-3 days and cells were incubated at 37° C. and 5% CO2 for 14 days. Hydroxyapatite deposits were evaluated using the OSTEOIMAGE™ Mineralization Assay (Lonza, Switzerland). At treatment day 14, cells were rested 30 minutes at room temperature for equilibration, washed with 200 μL/well PBS, and fixed in 100 μL/well 4% formaldehyde for 15 minutes. Cells were washed once with 200 μL/well assay wash buffer and 100 μL/well of assay staining reagent was added as per manufacturer's protocol. Cells were incubated at room temperature for 30 minutes, protected from light. After staining, cells were washed 3 times with 200 μL/well wash buffer and wells were filled with a final 200 μL/well wash buffer. Mineralization was quantified using a CLARIOstar plate reader (BMG Labtech, Germany) and representative images of the hydroxyapatite bone-like nodules were captured using a fluorescence microscope (Nikon Eclipse TS100 attached to an Olympus DP70 camera). […] Mineralization activity induced by compounds was normalized to DMSO vehicle as 100% mineralization. […]

For another data set, the system named is HEK293T cells. The data set is described as follows: CellTiter-Glo cytotoxicity assay in HEK293T cells. In kind it is cell-based, human. Conditions: 24 h, 25 μM and 8.3 μM. Here is the method: Cytotoxicity induced by the compounds in HEK293T cells and primary human calvarial osteoblasts (HCO) (ScienCell Research Laboratories, San Diego, CA) were tested using the […]-GLO™ Luminescent Cell Viability Assay (Promega, Madison, WI). This is a luminescence-based assay that determines viable cells by measuring cellular adenosine triphosphate (ATP) production. The luciferase enzyme requires ATP to catalyze the conversion of beetle luciferin to oxyluciferin and light. Thus, luciferase activity is proportional to ATP accumulation in the cells. For this assay, 96-well flat-bottom opaque plates seeded with HEK293T cells at 5,000 cells/well and HCO cells at 3,000 cells/well in 100 μL/well of growth medium (DMEM, 10% FBS, 1× Penicillin/Streptomycin). After incubating overnight at 37° C., 5% CO2 to allow attachment, cells were treated with 1 μL/well of compound (25-0.1 μM) or DMSO vehicle and incubated an additional 24 hours. Then cells were equilibrated for 30 minutes at room temperature and 100 μL/well of […]-GLO™ Reagent was added. Plates were placed on an orbital shaker for 2 minutes and incubated at room temperature for 10 minutes to stabilize the luminescent signal, which was read immediately after on a CLARIOstar plate reader (BMG Labtech, Germany). […] The HEK293T results represent the means±SEM of 3 technical replicates. The HCO results represent the means±SEM of 3 independent experiments.
On the technique in general: Cellular ATP, detected with luciferase, serves as a proxy for viable cell number.

For data set [1], the target named is T1, RXFP2 (Homo sapiens, UniProt Q8WXD0).
T1 construct: expressed in transfected cells
The data set is described as follows: Luciferase cAMP assay in HEK-CRE-Luc-RXFP2 cells. In kind it is cell-based. Particulars: for EC50: 3 h treatment; for Emax (% Eff vs. 10 nM INSL3): relative to 10 nM INSL3 response. The procedure:
A confirmatory cAMP assay was done to eliminate false positives using a HEK293T-CRE-Luc cell line stably transfected with RXFP2 (HEK-CRE-Luc-RXFP2), as this cell line expresses luciferase under the control of the cAMP response element (CRE). Activation of the RXFP2 receptor increases intracellular cAMP levels, inducing luciferase transcription in the nucleus. Thus, luciferase activity in these cells is proportional to cAMP accumulation. For this assay, cells were seeded in 96-well flat-bottom opaque plates at 20,000 cells/well in 60 μL/well of serum-free DMEM medium and allowed to attach overnight at 37° C., 5% CO2. The next morning, cells were treated with 1 μL/well of compound (25 μM-0.21 nM), 1 μM forskolin, or DMSO vehicle. Cells were also treated with 4 μL of INSL3 (100-0.01 nM) (Phoenix Pharmaceuticals, Burlingame, CA) or vehicle serum-free DMEM. Cells were incubated with the treatments for 3 hours at 37° C., 5% CO2, then rested 30 minutes at room temperature for equilibration, after which 65 μL/well of substrate AMPLITE™ Luciferase Reporter Gene Assay Kit (AAT Bioquest, Sunnyvale, CA) was added. Plates were incubated for 40 minutes at room temperature protected from light, and then luciferase output was read on a CLARIOstar plate reader (BMG Labtech, Germany). […]

Data set [2] addresses T1, RXFP2. The data set can be described thus: HTRF cAMP assay in HEK293T cells stably expressing RXFP2 (HEK-RXFP2). Format: cell-based. Particulars: for % EFF vs. 100 nM INSL3 (c): normalized to 100 nM INSL3 cAMP response. Summed up:
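HEK-RXFP2 cells in serum-free DMEM were treated with compound up to 25 μM for 1 h at 37°C, and cAMP was read by HTRF immunoassay. Condition (a): 20,000 cells/well, 200 μM IBMX, normalized to 1 nM INSL3. Condition (b): 10,000 cells/well, 1 nM INSL3. Condition (c): 7,500 cells/well, no IBMX, 100 nM INSL3.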

The mark [3] stands for this setting: condition (c): 7,500 cells/well, IBMX omitted.

T1 sequence (Q8WXD0 whole entry): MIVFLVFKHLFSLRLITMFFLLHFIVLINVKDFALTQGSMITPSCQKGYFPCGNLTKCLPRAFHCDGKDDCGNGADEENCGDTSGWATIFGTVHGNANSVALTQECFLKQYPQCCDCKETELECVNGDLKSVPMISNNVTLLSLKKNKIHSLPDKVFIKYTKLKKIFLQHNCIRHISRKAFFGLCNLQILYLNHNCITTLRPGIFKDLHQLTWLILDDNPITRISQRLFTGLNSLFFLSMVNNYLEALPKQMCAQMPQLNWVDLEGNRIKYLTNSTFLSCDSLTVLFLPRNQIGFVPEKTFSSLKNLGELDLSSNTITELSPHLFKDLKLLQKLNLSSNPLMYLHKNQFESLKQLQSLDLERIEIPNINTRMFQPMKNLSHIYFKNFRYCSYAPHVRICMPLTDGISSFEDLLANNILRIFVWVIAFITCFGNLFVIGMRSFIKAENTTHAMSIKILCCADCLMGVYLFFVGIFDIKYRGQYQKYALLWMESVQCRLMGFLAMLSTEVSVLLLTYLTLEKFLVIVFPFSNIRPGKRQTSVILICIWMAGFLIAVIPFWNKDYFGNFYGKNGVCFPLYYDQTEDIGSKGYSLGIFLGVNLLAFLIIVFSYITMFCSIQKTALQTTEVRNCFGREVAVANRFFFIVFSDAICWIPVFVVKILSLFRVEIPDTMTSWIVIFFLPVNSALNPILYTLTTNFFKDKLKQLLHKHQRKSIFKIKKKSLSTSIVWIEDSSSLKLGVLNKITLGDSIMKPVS

For `O=C1Nc2ccc(-c3cccc(C(F)(F)F)c3)cc2C(=O)N2CCN(C(=O)COc3ccc(OC(F)(F)F)cc3Br)C[C@@H]12` [Example 123, (S)-2-(2-(2-bromo-4-(trifluoromethoxy)phenoxy)acetyl)-8-(3-(trifluoromethyl)phenyl)-1,3,4,12a-tetrahydrobenzo[e]pyrazino[1,2-a][1,4]diazepine-6,12 (2H, 11H)-dione], in the data set with primary HCO cells (1, 3, or 5 μM), the “mineralization (hydroxyapatite) vs. DMSO vehicle” value is listed as “does not seem to increase mineralization”. Besides, the cytotoxicity result in the data set on HEK293T cells is reported as “some toxicity”. Besides, the EC50 on RXFP2 [1] (25 μM-[…]) was 58.5 nM; on RXFP2 [2] (condition (b): 10,000 cells/well, IBMX 200 μM) it was 18 to 23.3 nM; at RXFP2 [2] (setting [3]) it was 46.2 to 73.7 nM. Also, the “Emax (% Eff vs. 10 nM INSL3)” value at RXFP2 [1] turned out to be 117.1%. Further, the “activity in the HTRF cAMP screen” value at RXFP2 [2] (compared with Examples 187, 158, 153) is given as “weaker activity”. Also, the “% EFF vs. 1 nM INSL3 (b)” value at RXFP2 [2] (condition (b): 10,000 cells/well, IBMX 200 μM, normalized to 1 nM INSL3 cAMP response) is reported as 113.66-166.88%. In addition, the “% EFF vs. 100 nM INSL3 (c)” value on RXFP2 [2] (setting [3]) was 38.35-49.8%.
In the case of `O=C1Nc2ccc(-c3cc(C(F)(F)F)cc(C(F)(F)F)c3)cc2C(=O)N2CCN(C(=O)COc3ccc(OC(F)(F)F)cc3Br)C[C@@H]12` [Example 158, (S)-8-(3,5-Bis(trifluoromethyl)phenyl)-2-(2-(2-bromo-4-(trifluoromethoxy)phenoxy)acetyl)-1,3,4,12a-tetrahydrobenzo[e]pyrazino[1,2-a][1,4]diazepine-6,12 (2H, 11H)-dione], in the data set on primary HCO cells (5 μM), the “mineralization (hydroxyapatite) vs. DMSO vehicle” value is given as “significant increase”. Further, the cytotoxicity result in the data set with HEK293T cells is on record as “some toxicity”. Besides, on RXFP2 [1] (25 μM-0.21 nM), the EC50 was determined as 25.8 nM. For the same compound, the “RXFP2 agonist activity” value at RXFP2 [1] (luciferase cAMP assay) is given as “potent RXFP2 agonists”. At RXFP2 [1], the “Emax (% Eff vs. 10 nM INSL3)” value was found to be 105.5%. In addition, at RXFP2 [2] (setting [3]), the EC50 lay in the range of 167 to 1570 nM and the “% EFF vs. 100 nM INSL3 (c)” value is 48.99-81.93%.
For the compound `O=C1Nc2ccc(-c3cc(C(F)(F)F)cc(C(F)(F)F)c3)cc2C(=O)N2CCN(C(=O)COc3ccc(OC(F)(F)F)cc3I)C[C@@H]12` [Example 187, (S)-8-(3,5-bis(trifluoromethyl)phenyl)-2-(2-(2-iodo-4-(trifluoromethoxy)phenoxy)acetyl)-1,3,4,12a-tetrahydrobenzo[e]pyrazino[1,2-a][1,4]diazepine-6,12 (2H, 11H)-dione], the “mineralization (hydroxyapatite) vs. DMSO vehicle” value in the data set with primary HCO cells (5 μM) is reported as “significant increase”. On RXFP2 [2] (setting [3]), the EC50 fell in the range of 128 to 568 nM and the “% EFF vs. 100 nM INSL3 (c)” value was 87.28-147.65%.

What is called EC50 is the concentration giving half of the maximal effect. A low value points to greater potency.
